Our source for the IC50, Activity and Km values is ChEMBL document CHEMBL4316646, “Strepantibins A-C: Hexokinase II Inhibitors from a Mud Dauber Wasp Associated Streptomyces sp” (J Nat Prod, 2019).

One series has as its target T1, Hexokinase-2 (Homo sapiens, UniProt P52789).
T1 sequence (P52789 whole entry): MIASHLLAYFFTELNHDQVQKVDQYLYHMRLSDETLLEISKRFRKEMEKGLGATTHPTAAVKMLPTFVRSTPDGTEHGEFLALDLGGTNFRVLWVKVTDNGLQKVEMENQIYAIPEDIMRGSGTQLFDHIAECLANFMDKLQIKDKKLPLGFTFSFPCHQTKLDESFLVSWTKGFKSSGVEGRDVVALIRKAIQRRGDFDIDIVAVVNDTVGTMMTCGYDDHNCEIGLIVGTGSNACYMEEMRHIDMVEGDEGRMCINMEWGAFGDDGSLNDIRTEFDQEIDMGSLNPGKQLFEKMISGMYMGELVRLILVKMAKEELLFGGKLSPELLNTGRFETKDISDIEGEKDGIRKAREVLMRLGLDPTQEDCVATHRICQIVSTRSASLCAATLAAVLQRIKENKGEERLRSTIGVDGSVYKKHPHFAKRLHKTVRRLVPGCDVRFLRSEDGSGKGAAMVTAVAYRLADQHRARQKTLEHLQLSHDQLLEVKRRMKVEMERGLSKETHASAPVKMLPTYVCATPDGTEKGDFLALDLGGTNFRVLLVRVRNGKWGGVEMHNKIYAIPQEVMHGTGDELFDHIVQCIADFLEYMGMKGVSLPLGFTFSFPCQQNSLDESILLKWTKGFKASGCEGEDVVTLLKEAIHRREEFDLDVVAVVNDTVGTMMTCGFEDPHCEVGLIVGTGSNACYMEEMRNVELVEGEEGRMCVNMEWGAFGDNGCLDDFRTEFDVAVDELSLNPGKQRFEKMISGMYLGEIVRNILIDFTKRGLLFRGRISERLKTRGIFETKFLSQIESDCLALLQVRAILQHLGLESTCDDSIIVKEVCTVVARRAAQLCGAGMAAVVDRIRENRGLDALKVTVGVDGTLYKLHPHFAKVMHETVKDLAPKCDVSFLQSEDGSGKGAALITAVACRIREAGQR
The experiment in a line: Inhibition of HK2 (unknown origin) using glucose-6-phosphate dehydrogenase as substrate preincubated for 10 mins followed by substrate addition.

The test system of another series is L02. The experiment in a line: Cytotoxicity against human LO2 cells assessed as reduction in cell viability by MTT assay. It counts as ADME, cell-based. For orientation: Tetrazolium dyes change colour on reduction, which living cells bring about.
The next series deals with HepG2. The experiment in a line: Cytotoxicity against human HepG2 cells assessed as reduction in cell viability by MTT assay. It counts as functional, cell-based.
For series [1], the system named is SMMC-7721. Nature of the series: Cytotoxicity against human SMMC7721 cells assessed as reduction in cell viability by MTT assay. The format is functional, cell-based.
The next series has as its system PLC-PRF-5. Nature of the series: Cytotoxicity against human PLC/PRF/5 cells assessed as reduction in cell viability by MTT assay. It counts as functional, cell-based.
The subject of series [2] is SMMC-7721. Nature of the series: Induction of apoptosis in human SMMC7721 cells assessed as chromatin […] at 0.5 to 8 uM measured after 24 hrs by DAPI staining based fluorescence microscopic analysis. It counts as functional, cell-based.
Series [3] concerns SMMC-7721. The experiment in a line: Induction of apoptosis in human SMMC7721 cells assessed as formation of apoptotic bodies at 0.5 to 8 uM measured after 24 hrs by DAPI staining based fluorescence microscopic analysis. The format is functional, cell-based.
Compound in series [4]: CC1(C)N=C2C(c3ccccc3)=CC(=O)C(c3ccccc3)=C2O1
The experiment in a line: (§1) Competitive-inhibition of HK2 (unknown origin) assessed as Km at 10 uM using varying levels of glucose-6-phosphate dehydrogenase as substrate by Lineweaver-burk plot analysis. The note with it: Homo sapiens.

Compound in series [5]: COC1=C(c2ccccc2)C(=O)[C@@](O)(CC(C)=O)C(c2ccccc2)=C1
The series is described as §1. The settings on record: Homo sapiens.

Compound in series [6]: COc1cc(-c2ccccc2)c(=O)c(C(C)=O)c(O)c1-c1ccccc1
Described as §1. The settings on record: Homo sapiens.

Counter-ions that a name gives are not always drawn. Activity calls are given as the source filed them. No cut-off for these calls is given here.

With `CC1(C)N=C2C(c3ccccc3)=CC(=O)C(c3ccccc3)=C2O1`, the IC50 (usually the concentration at which inhibition is half-maximal) turned out to be 34.6 µM on Hexokinase-2; 17.6 µM with L02; 12.3 µM in the series with HepG2; 4.9 µM with SMMC-7721 [1]; 11.6 µM in the series on PLC-PRF-5.

With `COC1=C(c2ccccc2)C(=O)[C@@](O)(CC(C)=O)C(c2ccccc2)=C1`, the IC50 was found to be 9.8 µM on Hexokinase-2; 11.2 µM with L02; 2.3 µM with HepG2; 2.9 µM with SMMC-7721 [1]; 1.9 µM in the series with PLC-PRF-5. The outcome in the series on SMMC-7721 [2] and in the series on SMMC-7721 [3] was Active.

`COc1cc(-c2ccccc2)c(=O)c(C(C)=O)c(O)c1-c1ccccc1`: the IC50 at Hexokinase-2 turned out to be 31.2 µM; in the series with L02 it was 17.8 µM; in the series with HepG2 it was 9.5 µM; in the series on SMMC-7721 [1], 10.3 µM; in the series on PLC-PRF-5 it was 7.1 µM.

On to `COc1cccc2c1C(=O)c1c(O)c3c(c(O)c1C2=O)C[C@@](O)(C(=O)CO)C[C@@H]3O[C@H]1C[C@H](N)[C@H](O)[C@H](C)O1` [DOXORUBICIN HYDROCHLORIDE], for which the IC50 was 13.5 µM in the series on L02, 2.6 µM in the series on HepG2, 1.1 µM in the series on SMMC-7721 [1] and 1.9 µM in the series on PLC-PRF-5.

For the molecule `O=c1[nH]cc(F)c(=O)[nH]1` [FLUOROURACIL], the IC50 with L02 came out at 10.6 µM; with HepG2, 3.6 µM; in the series with SMMC-7721 [1], 2.5 µM; with PLC-PRF-5 it was 2.8 µM.

B1: Hexokinase-2 (Homo sapiens), P52789 (protein)
chain: T1 sequence (P52789 whole entry)
In the case of B1, the Km (usually the concentration of substrate that gives half-maximal velocity) in [4] came to 290 µM; in series [5], 430 µM; in [6], 310 µM.
